In patent US12583855B2, “RET selective inhibitor, preparation method therefor and use thereof” (SHOUYAO HOLDINGS (BEIJING) CO., LTD., priority 2019, dated 2026):
Positions count from the first letter of the chain named.

Tests used:
RET^WT = target: T1, RET^WT (Homo sapiens, UniProt P07949); test: In vitro enzymatic activity assay on RET^WT (HTRF); format: biochemical; conditions: GST-RET^WT (658-1114 aa) 0.5 nM, ATP 25 μM
T1 construct: GST-RET^WT (658-1114 aa, final concentration of 0.5 nM)
T1 sequence (P07949 658-1114): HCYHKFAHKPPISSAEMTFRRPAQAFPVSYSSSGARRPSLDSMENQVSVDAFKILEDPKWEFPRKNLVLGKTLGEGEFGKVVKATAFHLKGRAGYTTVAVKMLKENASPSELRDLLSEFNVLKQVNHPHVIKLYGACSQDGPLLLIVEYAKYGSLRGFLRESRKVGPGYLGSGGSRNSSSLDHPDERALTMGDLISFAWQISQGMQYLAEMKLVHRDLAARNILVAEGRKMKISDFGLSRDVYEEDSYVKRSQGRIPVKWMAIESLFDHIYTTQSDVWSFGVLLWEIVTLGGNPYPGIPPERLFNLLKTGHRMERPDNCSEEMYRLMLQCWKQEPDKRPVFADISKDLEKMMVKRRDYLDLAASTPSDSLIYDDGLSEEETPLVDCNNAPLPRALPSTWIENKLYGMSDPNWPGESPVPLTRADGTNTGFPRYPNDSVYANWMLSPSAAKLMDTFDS
Method: 1. In Vitro Enzymatic Activity Assay for Compounds on RET^WT
The compounds were diluted 5-fold with 100% DMSO starting from 0.2 mM (7 concentrations in total), and 2 μL of each concentration was added to 48 μL of reaction buffer (50 mM HEPES pH7.5, 0.1 mM Na3VO4, 5 mM MgCl2. 1 mM DTT, 0.001% Tween 20, and 100 μg/ml BSA) for dilution and mixing.
The 384-well plate was placed in an incubator and reacted at 23° C. for 2 h before the reaction was stopped by the addition of 5 μL of TK Antibody (purchased from Cisbio) and 5 μL of Streptavidin-XL665 (purchased from Cisbio). […] The enzymatic activity signal of RET^WT was measured at 7 concentrations for each compound and the data were calculated using GraphPad Prism software to obtain the IC50 value for the compound.

TT cells = test: TT cell proliferation activity (Cell-Titer Glo); format: cell-based; conditions: TT human thyroid carcinoma cells, 120 h
Method: 4. Determination of TT Cell Proliferation Activity of Compounds
TT cells, a human thyroid carcinoma cell line, were cultured in Ham's F-12K medium supplemented with 15% fetal bovine serum (FBS, purchased from Biological Industries, BI) and 1% penicillin/streptomycin double antibody (P/S, purchased from Life Technology) under conditions of 37° C. and 5% CO2. TT cells were plated in a 96-well plate (#3917 purchased from Corning) at a concentration of 5000 cells/195 μL/well the day before compound was detected. The compounds were diluted 3-fold with 100% DMSO starting from 10 mM (10 concentrations in total) after 24 h, and 2 μL of each concentration was diluted in 48 μL of Ham's F-12K medium. 5 μL of each diluted compound was added to the plated Cell suspension, the compound and cells were co-incubated in a cell incubator for 120 h (5 days), after the medium was aspirated. 25 μL of Cell-Titer Glo (G7570, purchased from Promega) reagent was added and re-incubated for 5-10 min. Fluorescence value was then read on Envision and the data were calculated using GraphPad Prism software to obtain IC50 values for inhibition of cell proliferation by the compounds.

RET^V804M = target: T2, RET^V804M (Homo sapiens, UniProt P07949, V804M); test: In vitro enzymatic activity assay on RET^V804M (HTRF); format: biochemical; conditions: GST-RET^V804M (658-1114 aa) 0.02 nM, ATP 1.5 μM
T2 construct: GST-RET^V804M (658-1114 aa, final concentration of 0.02 nM)
T2 sequence (P07949 658-1114 V804M): T1 sequence (P07949 658-1114) with V147M

VEGFR2 = VEGFR2 (Homo sapiens, UniProt P35968); test: In vitro enzymatic activity assay on VEGFR2 (HTRF); format: biochemical; conditions: GST-VEGFR2 0.1 nM, ATP 2.5 μM
VEGFR2, sequence (P35968 20-1356): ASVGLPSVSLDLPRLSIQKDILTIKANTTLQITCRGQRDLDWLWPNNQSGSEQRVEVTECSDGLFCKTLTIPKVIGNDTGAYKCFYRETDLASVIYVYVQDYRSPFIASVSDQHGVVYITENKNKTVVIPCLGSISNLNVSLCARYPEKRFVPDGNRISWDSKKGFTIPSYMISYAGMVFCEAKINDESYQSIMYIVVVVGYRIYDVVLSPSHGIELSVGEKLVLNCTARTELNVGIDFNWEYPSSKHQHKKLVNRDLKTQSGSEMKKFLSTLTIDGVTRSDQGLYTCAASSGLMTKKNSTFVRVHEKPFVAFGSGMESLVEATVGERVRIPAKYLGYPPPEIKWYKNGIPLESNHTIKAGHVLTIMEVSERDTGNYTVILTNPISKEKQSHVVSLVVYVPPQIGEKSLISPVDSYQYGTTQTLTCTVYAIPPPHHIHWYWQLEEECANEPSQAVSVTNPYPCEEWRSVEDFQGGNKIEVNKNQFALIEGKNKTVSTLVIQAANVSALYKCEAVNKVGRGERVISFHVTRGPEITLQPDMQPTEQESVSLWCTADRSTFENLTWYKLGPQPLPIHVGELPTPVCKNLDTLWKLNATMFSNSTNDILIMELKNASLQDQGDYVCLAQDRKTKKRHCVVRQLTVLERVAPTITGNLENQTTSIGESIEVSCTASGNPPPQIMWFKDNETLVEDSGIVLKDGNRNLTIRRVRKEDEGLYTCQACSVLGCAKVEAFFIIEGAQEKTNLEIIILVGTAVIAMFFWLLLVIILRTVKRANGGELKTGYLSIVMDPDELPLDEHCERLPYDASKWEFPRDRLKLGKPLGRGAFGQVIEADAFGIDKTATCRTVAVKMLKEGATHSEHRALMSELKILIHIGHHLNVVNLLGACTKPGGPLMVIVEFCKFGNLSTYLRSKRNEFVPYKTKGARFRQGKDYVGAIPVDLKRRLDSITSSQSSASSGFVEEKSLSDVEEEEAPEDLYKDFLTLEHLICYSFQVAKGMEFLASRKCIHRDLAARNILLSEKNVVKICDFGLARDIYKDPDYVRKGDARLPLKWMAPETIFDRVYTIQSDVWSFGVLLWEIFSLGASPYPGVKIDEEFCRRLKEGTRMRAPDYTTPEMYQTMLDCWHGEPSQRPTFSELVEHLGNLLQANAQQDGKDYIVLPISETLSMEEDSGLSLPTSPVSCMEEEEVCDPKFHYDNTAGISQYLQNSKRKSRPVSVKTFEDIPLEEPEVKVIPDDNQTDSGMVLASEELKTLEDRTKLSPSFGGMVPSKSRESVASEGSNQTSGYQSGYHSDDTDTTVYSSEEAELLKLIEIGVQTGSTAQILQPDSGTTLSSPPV
Method: 3. n Vitro Enzymatic Activity Assay for Compounds on VEGFR2
The compounds were diluted 5-fold with 100% DMSO starting from 1 mM (7 concentrations in total), and 2 μL of each concentration was added to 48 μL of reaction buffer (50 mM HEPES pH 7.5, 0.1 mM Na3VO4, 5 mM MgCl2, 1 mM MnCl2, 1 mM DTT, 0.001% Tween 20, and 100 μg/ml BSA) for dilution and mixing. 2.5 μL of compounds and 5 μL of GST-VEGFR2 (final concentration of 0.1 nM) were added to a 384-well plate (OptiPlate-384, purchased from PerkinElmer), the mixture was mixed by centrifugation, and 2.5 μL of ATP (final concentration of 2.5 μM) and TK Peptide Substrate mixture (final concentration of 1 μM, purchased from Cisbio) were added to start the reaction, with a total reaction volume of 10 μL. The 384-well plate was placed in an incubator and reacted at 23° C. for 1.5 h before the reaction was stopped by the addition of 5 μL of TK Antibody (purchased from Cisbio) and 5 μL of Streptavidin-XL665 (purchased from Cisbio). After further incubation in the incubator for 1 h. fluorescence values (excitation at 320 nm, detecting emitted light at 665 nm and 620 nm, and a ratio of the two as an enzyme activity signal) were read on Envision (purchased from PerkinElmer). The enzymatic activity signal of VEGFR2 was measured at 7 concentrations for each compound and the data were calculated using GraphPad Prism software to obtain the IC50 value for the compound.

[1] = Pharmacokinetic data of compounds in male SD rats; format: in vivo; conditions: rat, po, intragastric, 5 mg/kg, suspension MC 0.5%, plasma
Method: 6. Pharmacokinetic Data of Compounds
Male SD rats (Beijing Vital River Laboratory Animal Technology Co., Ltd) were divided into groups. 3 in each group, received intragastric administration with the suspension of the test sample (5 mg/kg, suspensions MC 0.5%), respectively. Animals were fasted overnight prior to the experiment from 10 h before dosing to 4 h after dosing. Blood was collected 0.25, 0.5, 1, 2, 4, 6, 8, and 24 h after administration, respectively. After isoflurane anesthesia using a small animal anesthesia machine, 0.3 mL of whole blood samples was taken through the fundus venous plexus, placed in a heparin anticoagulant tube, and were centrifuged at 4° C. 4000 rpm for 5 min plasma was transferred to the centrifuge tube, and stored at −80° C. until analysis. Samples in the plasma were extracted using protein precipitation and the extracts were analyzed by LC/MS.

SMILES | IC50 (RET^WT) [nM] | IC50 (TT cells) [nM] | IC50 (RET^V804M) [nM] | IC50 (VEGFR2) [nM] | AUC(0-inf) [1] [ng·h/mL] | Cmax [1] [ng/mL] | Tmax [1] [h] | half-life [1] [h]
Cn1cc(-c2cc(-c3ccc(N4CCN(C(=O)C5=CCCC5)CC4)nc3)c3c(C#N)cnn3c2)cn1 [Example 2, 4-(6-(4-(cyclopent-1-ene-1-carbonyl)piperazin-1-yl)pyridin-3-yl)-6-(1-methyl-1Hpyrazol-4-yl)pyrazolo[1,5-a]pyridine-3-carbonitrile] | 0.108 | 26.1 | 0.906 | 13.4 | – | – | – | –
COc1ccc(CN2C3CC2CN(c2cnc(-c4cc(-c5cnn(C)c5)cn5ncc(C#N)c45)cn2)C3)cn1 [Example 3, 4-(5-(6-((6-methoxypyridin-3-yl)methyl)-3,6-diazabicyclo[3.1.1]heptan-3-yl)pyrazin-2-yl)-6-(1-methyl-1Hpyrazol-4-yl) pyrazolo[1,5-a]pyridine-3-carbonitride] | – | 1.01 | – | 3.01 | – | – | – | –
CC1=C(C(=O)N2CCN(c3ccc(-c4cc(-c5cnn(C)c5)cn5ncc(C#N)c45)cn3)CC2)CCC1 [Example 6, 6-(1-methyl-1Hpyrazol-4-yl)-4-(6-(4-(2-methylcyclopent-1-ene-1-carbonyl)piperazin-1-yl)pyridin-3-yl)pyrazolo[1,5-a]pyridine-3-carbonitrile] | 0.332 | 13.8 | 1.25 | 8.91 | – | – | – | –
CSCCN1CCN(c2ccc(-c3cc(-c4cnn(C)c4)cn4ncc(C#N)c34)cn2)CC1 [Example 21, 6-(1-methyl-1Hpyrazol-4-yl)-4-(6-(4-(2-(methylthio)ethyl)piperazin-1-yl)pyridin-3-yl)pyrazolo[1,5-a]pyridine-3-carbonitrile] | – | 27.9 | – | 11.9 | – | – | – | –
COc1ccc(CN2CCN(c3ccc(-c4cc(N5CC(F)(F)C5)cn5ncc(C#N)c45)cn3)CC2)cn1 [Example 26, 6-(3,3-difluoroazetidin-1-yl)-4-(6-(4-((6-methoxypyridin-3-yl)methyl)piperazin-1-yl)pyridin-3-yl)pyrazolo[1,5-a]pyridine-3-carbonitrile] | 0.422 | – | – | 95.5 | 45000 | 6000 | 1.75 | 4.9
COc1ccc(CN2CCN(c3ccc(-c4cc(N5CC(C#N)C5)cn5ncc(C#N)c45)cn3)CC2)cn1 [Example 32, 6-(3-cyanoazetidin-1-yl)-4-(6-(4-((6-methoxypyridin-3-yl)methyl)piperazin-1-yl)pyridin-3-yl)pyrazolo[1,5-a]pyridine-3-carbonitrile] | 0.8 | 48.7 | 3.19 | 29.1 | – | – | – | –
Cn1cc(-c2cc(-c3cnc(N4CC5CC(C4)N5Cc4ccc(S(C)(=O)=O)cc4)cn3)c3c(C#N)cnn3c2)cn1 [Example 41, 6-(1-methyl-1Hpyrazol-4-yl)-4-(5-(6-(4-(methylsulfonyl)benzyl)-3,6-diazabicyclo[3.1.1]heptan-3-yl)pyrazin-2-yl)pyrazolo[1,5-a]pyridine-3-carbonitrile] | 0.352 | 18.2 | 1.04 | 17.3 | – | – | – | –
Cn1cc(-c2cc(-c3cnc(N4CCN(Cc5ccc(S(C)(=O)=O)cc5)CC4)cn3)c3c(C#N)cnn3c2)cn1 [Example 42, 6-(1-methyl-1Hpyrazol-4-yl)-4-(5-(4-(4-(methylsulfonyl)benzyl)piperazin-1-yl)pyrazin-2-yl)pyrazolo[1,5-a]pyridine-3-carbonitrile] | 0.642 | 47.9 | – | 42.5 | – | – | – | –
COc1ccc(CN2C3CC2CN(c2ccc(-c4cc(N5CC(F)(F)C5)cn5ncc(C#N)c45)cn2)C3)nc1 [Example 46, 6-(3,3-difluoroazetidin-1-yl)-4-(6-(6-((5-methoxypyridin-2-yl)methyl)-3,6-diazabicyclo [3.1.1]heptan-3-yl)pyridin-3-yl) pyrazolo[1,5-a]pyridine-3-carbonitrile] | 0.159 | 37.6 | – | 17.2 | – | – | – | –
CSc1ccc(CN2C3CCC2CN(c2ccc(-c4cc(-c5cnn(C(F)F)c5)cn5ncc(C#N)c45)cn2)C3)cn1 [Example 73, 6-(1-(difluoromethyl)-1Hpyrazol-4-yl)-4-(6-(8-((6-(methylthio)pyridin-3-yl)methyl)-3,8-diazabicyclo[3.2.1]octan-3-yl)pyridin-3-yl)pyrazolo[1,5-a]pyridine-3-carbonitrile] | 0.753 | – | 5.89 | 65.4 | – | – | – | –
CSc1cccc(CN2C3CC2CN(c2ccc(-c4cc(-c5cnn(C(F)F)c5)cn5ncc(C#N)c45)cn2)C3)n1 [Example 74, 6-(1-(difluoromethyl)-1Hpyrazol-4-yl)-4-(6-(6-((6-(methylthio)pyridin-2-yl)methyl)-3,6-diazabicyclo[3.1.1]heptan-3-yl)pyridin-3-yl)pyrazolo[1,5-a]pyridine-3-carbonitrile] | 0.676 | – | 4.19 | 14.4 | – | – | – | –
CS(=O)(=O)c1ccc(CN2C3CC2CN(c2ccc(-c4cc(-c5cnn(C(F)(F)F)c5)cn5ncc(C#N)c45)cn2)C3)cc1 [Example 84, 4-(6-(6-(4-(methylsulfonyl)benzyl)-3,64-diazabicyclo[3.1.1]heptan-3-yl)pyridin-3-yl)-6-(1-(trifluoromethyl)-1Hpyrazol-4-yl) pyrazolo[1,5-a] pyridine-3-carbonitrile] | 0.309 | – | – | 13.3 | 27300 | 3090 | 2 | 2.78
